SMILES strings stand for the structures.

Holding throughout (experiment): Enzyme Assay
In test [1] the target is PIK3CD (Human) (UniProt O00329).
Test [2] has as its target PIK3CG (human) (UniProt P48736).
Test [3] addresses PIK3CB (Human) (UniProt P42338).

Sequence of PIK3CG (human) (P48736 whole entry, looked up): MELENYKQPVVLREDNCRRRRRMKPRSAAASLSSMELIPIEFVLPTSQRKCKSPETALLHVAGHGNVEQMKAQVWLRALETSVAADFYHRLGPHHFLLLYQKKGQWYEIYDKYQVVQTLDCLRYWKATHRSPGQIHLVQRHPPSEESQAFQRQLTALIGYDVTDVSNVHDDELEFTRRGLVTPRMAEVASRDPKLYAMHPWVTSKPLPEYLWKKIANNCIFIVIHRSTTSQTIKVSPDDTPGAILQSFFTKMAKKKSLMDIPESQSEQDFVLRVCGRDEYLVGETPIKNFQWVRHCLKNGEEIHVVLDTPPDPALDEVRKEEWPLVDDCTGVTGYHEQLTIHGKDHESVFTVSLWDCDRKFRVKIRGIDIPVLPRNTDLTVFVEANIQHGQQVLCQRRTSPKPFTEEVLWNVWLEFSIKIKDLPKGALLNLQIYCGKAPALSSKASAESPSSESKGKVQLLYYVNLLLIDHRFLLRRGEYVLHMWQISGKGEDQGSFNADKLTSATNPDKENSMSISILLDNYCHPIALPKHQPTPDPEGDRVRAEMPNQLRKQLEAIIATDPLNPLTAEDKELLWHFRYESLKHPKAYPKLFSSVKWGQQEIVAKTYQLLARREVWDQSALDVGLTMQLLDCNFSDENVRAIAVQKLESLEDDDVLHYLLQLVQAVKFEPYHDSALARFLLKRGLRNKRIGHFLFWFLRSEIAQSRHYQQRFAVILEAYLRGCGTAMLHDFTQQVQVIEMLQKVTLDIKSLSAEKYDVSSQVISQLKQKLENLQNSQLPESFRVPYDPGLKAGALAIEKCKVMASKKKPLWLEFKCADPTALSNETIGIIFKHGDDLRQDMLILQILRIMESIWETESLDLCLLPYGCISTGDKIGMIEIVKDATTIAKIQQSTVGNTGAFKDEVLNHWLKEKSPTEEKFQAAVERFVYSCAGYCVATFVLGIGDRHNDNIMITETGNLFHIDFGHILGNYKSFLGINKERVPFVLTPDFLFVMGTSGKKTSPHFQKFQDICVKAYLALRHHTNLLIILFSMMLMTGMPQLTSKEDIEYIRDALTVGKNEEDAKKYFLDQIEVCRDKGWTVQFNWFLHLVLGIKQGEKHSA
Sequence of PIK3CD (Human) (O00329 whole entry, looked up): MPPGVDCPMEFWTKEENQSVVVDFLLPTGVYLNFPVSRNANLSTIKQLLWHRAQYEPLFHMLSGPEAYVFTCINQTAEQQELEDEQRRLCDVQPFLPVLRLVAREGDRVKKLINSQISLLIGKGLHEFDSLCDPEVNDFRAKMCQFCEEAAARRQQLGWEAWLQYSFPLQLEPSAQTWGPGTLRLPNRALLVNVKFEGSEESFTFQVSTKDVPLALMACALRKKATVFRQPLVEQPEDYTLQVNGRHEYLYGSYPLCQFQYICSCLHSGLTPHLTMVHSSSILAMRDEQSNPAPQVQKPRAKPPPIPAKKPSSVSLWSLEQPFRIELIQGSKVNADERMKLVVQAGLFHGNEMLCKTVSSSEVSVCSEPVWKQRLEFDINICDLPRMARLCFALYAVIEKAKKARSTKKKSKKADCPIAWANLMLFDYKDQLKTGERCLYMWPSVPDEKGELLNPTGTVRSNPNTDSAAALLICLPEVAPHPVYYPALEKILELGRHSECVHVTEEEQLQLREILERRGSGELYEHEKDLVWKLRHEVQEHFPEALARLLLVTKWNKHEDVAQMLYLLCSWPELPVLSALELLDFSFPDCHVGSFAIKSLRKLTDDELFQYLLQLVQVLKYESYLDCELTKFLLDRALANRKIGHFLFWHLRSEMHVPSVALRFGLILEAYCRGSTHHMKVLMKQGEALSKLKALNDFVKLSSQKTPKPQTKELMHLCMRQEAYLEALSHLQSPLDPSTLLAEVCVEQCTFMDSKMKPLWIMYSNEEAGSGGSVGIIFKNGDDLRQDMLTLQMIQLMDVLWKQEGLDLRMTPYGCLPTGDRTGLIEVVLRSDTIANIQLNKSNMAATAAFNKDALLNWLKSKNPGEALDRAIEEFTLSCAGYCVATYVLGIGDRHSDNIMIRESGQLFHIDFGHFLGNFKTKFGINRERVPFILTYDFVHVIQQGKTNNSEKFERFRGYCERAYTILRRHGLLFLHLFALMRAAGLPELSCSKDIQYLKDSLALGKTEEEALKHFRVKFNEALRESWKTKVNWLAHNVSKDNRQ
Sequence of PIK3CB (Human) (P42338 whole entry, looked up): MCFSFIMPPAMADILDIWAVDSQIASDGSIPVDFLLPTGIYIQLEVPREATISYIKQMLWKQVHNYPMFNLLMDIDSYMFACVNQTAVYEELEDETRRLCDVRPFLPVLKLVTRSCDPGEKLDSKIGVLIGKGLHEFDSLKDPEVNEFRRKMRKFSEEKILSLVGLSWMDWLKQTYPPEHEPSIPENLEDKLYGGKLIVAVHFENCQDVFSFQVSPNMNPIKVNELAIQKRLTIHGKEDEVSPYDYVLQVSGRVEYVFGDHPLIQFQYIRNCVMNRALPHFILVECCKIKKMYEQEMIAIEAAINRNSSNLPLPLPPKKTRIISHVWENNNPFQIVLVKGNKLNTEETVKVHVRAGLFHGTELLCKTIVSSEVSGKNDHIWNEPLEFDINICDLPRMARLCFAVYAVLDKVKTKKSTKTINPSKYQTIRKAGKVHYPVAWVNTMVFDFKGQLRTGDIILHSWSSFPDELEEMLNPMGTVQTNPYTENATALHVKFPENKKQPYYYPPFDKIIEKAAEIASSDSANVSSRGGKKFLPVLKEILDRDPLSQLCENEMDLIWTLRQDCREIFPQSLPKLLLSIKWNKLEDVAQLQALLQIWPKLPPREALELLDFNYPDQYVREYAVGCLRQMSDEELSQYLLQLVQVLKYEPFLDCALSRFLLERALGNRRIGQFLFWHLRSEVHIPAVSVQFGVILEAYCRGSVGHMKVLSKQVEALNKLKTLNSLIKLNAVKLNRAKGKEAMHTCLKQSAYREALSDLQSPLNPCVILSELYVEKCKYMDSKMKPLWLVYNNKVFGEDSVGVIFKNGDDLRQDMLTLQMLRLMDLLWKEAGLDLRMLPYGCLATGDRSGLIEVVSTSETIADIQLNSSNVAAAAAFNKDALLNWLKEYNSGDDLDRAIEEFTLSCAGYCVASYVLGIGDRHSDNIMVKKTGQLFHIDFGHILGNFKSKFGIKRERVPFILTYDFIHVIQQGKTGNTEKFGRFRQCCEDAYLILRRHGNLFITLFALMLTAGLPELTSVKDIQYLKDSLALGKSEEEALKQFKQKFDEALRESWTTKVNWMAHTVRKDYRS

The IC50 is the midpoint of a concentration-inhibition curve. Low readings indicate greater potency in that assay, high ones weaker potency in that assay. For the compound `Nc1ncc([N+](=O)O)c(N2CC[C@H]2c2nn3ccc(Cl)c3c(=O)n2-c2ccccc2)n1`, the 50% inhibitory concentration (IC50) is 40 nM in test [1] and 25 nM in test [2]. In test [1], `C=Cc1ccn2nc([C@@H]3CCN3c3ncnc4[nH]cc(C#N)c34)n(-c3ccccc3)c(=O)c12` came in with an IC50 of 300 nM. In the case of `Nc1nc(N2CCC[C@H]2c2nn3cccc3c(=O)n2-c2ccccc2)c2nc[nH]c2n1`, the IC50 in test [1] was determined as 6 nM; in test [2] it was 40 nM. On to `C[S@+]([O-])c1c[nH]c2ncnc(N3C[C@@H](C#N)C[C@H]3c3nn4ccc(Cl)c4c(=O)n3-c3ccccc3)c12`, for which the half-maximal inhibitory concentration (IC50) in test [1] is 21 nM; in test [3], 256 nM; in test [2], 38 nM.

In the case of `C[S@@+]([O-])c1c[nH]c2ncnc(N3C[C@@H](C#N)C[C@H]3c3nn4ccc(Cl)c4c(=O)n3-c3ccccc3)c12`, the IC50 was determined as 64 nM in test [1] and 16 nM in test [2]. Consider `C[C@H]1CN(c2nc(N)nc3c2C(=O)CCN3)[C@@H]1c1nn2ccc(Cl)c2c(=O)n1-c1ccccn1`, for which the values for the IC50 in test [1], in test [3] and in test [2] were 12 nM, 1580 nM and 18 nM, respectively. With `N#Cc1c(N)ncnc1OCc1cc2ncc(Cl)n2c(=O)n1-c1ccccc1`, the half-maximal inhibitory concentration (IC50) in test [1] was 136 nM. Turning to `COc1cccc(-n2c([C@@H]3CCCN3c3ncnc4[nH]cc(C#N)c34)nn3cccc3c2=O)c1`, the figures for the IC50 in test [1] and in test [2] were 5 nM and 89 nM, respectively. Consider `COc1ncc(-c2n[nH]c3ncnc(N4CCC[C@H]4c4nn5ccc(Cl)c5c(=O)n4-c4ccccc4)c23)cn1`, for which the half-maximal inhibitory concentration (IC50) turned out to be 1 nM in test [1], 47 nM in test [3] and 15 nM in test [2]. On to `N#Cc1n[nH]c2ncnc(N3CCC[C@H]3c3nn4cccc4c(=O)n3-c3ccccc3)c12`, for which the 50% inhibitory concentration (IC50) in test [1] turned out to be 26 nM; in test [2], 231 nM. Take `Nc1ncc(C(=O)C(F)F)c(N2CC[C@H]2c2nn3ccc(Cl)c3c(=O)n2-c2ccccc2)n1`: the figures for the IC50 in test [1] and in test [2] were 38 nM and 10 nM, respectively. For the compound `N#Cc1c[nH]c2ncnc(N3CC[C@H]3c3nn4cccc4c(=O)n3-c3ccccc3)c12`, in test [1], the IC50 amounted to 93 nM. For `CC(Nc1ncnc2[nH]cc(C#N)c12)c1cc2cccn2c(=O)n1-c1ccccc1` (configuration not stated), in test [2], the IC50 was 105 nM. For `O=c1c2c(Br)ccn2nc([C@@H]2CCN2c2ncnc3[nH]cnc23)n1-c1ccccc1`, the results for the IC50 in test [1] and in test [2] were 156 nM and 287 nM, respectively.

Values taken from the Kinase Knowledgebase extract (Sharma et al. 2016).
